In patent publication US20230053540A1, “TREATMENT OF LIVER INJURY” (Massachusetts Institute of Technology, priority 2019, published 2023):

Tested on: hepatocytes
Experiment: Seq-Well scRNA-Seq of hepatocytes after APAP overdose (signature scores, DEG vs untreated)
Type: in vivo, mouse
Conditions: APAP vs UT

For `CC(=O)Nc1ccc(O)cc1` [APAP, acetaminophen], the “Tm7sf2 logFC” value (composite DEG) was −0.3164, the “Tmbim4 logFC” value (composite DEG) was 0.3227 and the “Tmbim6 logFC” value (composite DEG) was 0.3387. For the same compound, the “Tmed5 logFC” value (composite DEG) was 0.4016, the “Tmem14c logFC” value (composite DEG) was −0.3685 and the “Tmem37 logFC” value (composite DEG) was −0.2822. The “Tmem56 logFC” value (composite DEG) was 1, the “Tmem147 logFC” value (composite DEG) was −0.2838 and the “Tmem160 logFC” value (composite DEG) was −0.339. The “Tmem205 logFC” value (composite DEG) was −0.7747, the “Tmem243 logFC” value (composite DEG) was −0.3791 and the “Tmem258 logFC” value (composite DEG) was −0.2769. The “Tmprss6 logFC” value (composite DEG) was −0.2802, the “Tmsb4x logFC” value (composite DEG) was 0.7806 and the “Tnks2 logFC” value (composite DEG) was 0.3176. For the same compound, the “Tns1 logFC” value (composite DEG) was 0.4349, the “Tob1 logFC” value (composite DEG) was −0.3387 and the “Tomm70a logFC” value (composite DEG) was 0.2688. For the same compound, the “Tpr logFC” value (composite DEG) was 0.4409, the “Trf logFC” value (composite DEG) was −0.2619 and the “Trib1 logFC” value (composite DEG) was 0.3317. The “Trp53inp1 logFC” value (composite DEG) was 1.008, the “Tsc22d1 logFC” value (composite DEG) was −0.2997 and the “Tspan31 logFC” value (composite DEG) was −0.2959. The “Tspo logFC” value (composite DEG) was −0.3157, the “Ttc36 logFC” value (composite DEG) was −0.6606 and the “Tubb6 logFC” value (composite DEG) was 0.5767. For the same compound, the “Txn1 logFC” value (composite DEG) was −0.3091, the “Txndc5 logFC” value (composite DEG) was 0.2901 and the “Txnrd1 logFC” value (composite DEG) was 1.444. For the same compound, the “Tyrobp logFC” value (composite DEG) was 0.4666, the “Ubb logFC” value (composite DEG) was −0.275 and the “Ubc logFC” value (composite DEG) was −0.6618. For the same compound, the “Ubl5 logFC” value (composite DEG) was −0.3033, the “Ubr4 logFC” value (composite DEG) was 0.3301 and the “Ugp2 logFC” value (composite DEG) was 0.2973. For the same compound, the “Ugt2b1 logFC” value (composite DEG) was −0.7768, the “Ugt2b5 logFC” value (composite DEG) was −0.6034 and the “Ugt2b36 logFC” value (composite DEG) was −0.5834. For the same compound, the “Uhrf1bp1l logFC” value (composite DEG) was 0.4198, the “Uqcc2 logFC” value (composite DEG) was −0.3269 and the “Uqcrb logFC” value (composite DEG) was −0.4084. For the same compound, the “Uqcrq logFC” value (composite DEG) was −0.8867, the “Urah logFC” value (composite DEG) was −0.7641 and the “Uroc1 logFC” value (composite DEG) was 0.4162. The “Vcam1 logFC” value (composite DEG) was 0.4574, the “Vnn3 logFC” value (composite DEG) was 0.2765 and the “Vtn logFC” value (composite DEG) was 0.3338. For the same compound, the “Wbp1l logFC” value (composite DEG) was 0.5535, the “Wdr26 logFC” value (composite DEG) was 0.4325 and the “Wdr43 logFC” value (composite DEG) was 0.3438. The “Xiap logFC” value (composite DEG) was 0.2602, the “Yap1 logFC” value (composite DEG) was 0.3281 and the “Zbtb20 logFC” value (composite DEG) was 0.4715. For the same compound, the “Zfp91 logFC” value (composite DEG) was 0.3707, the “Zyx logFC” value (composite DEG) was 0.2983 and the “mmu-mir-6240 logFC” value (composite DEG) was 1.101. The “mt-Co3 logFC” value (composite DEG) was −1.167, the “0610007P14Rik logFC” value (A24logFC) was −0.257 and the “1110058L19Rik logFC” value (A24logFC) was −0.2581. For the same compound, the “4931406C07Rik logFC” value (A24logFC) was −0.2544, the “4932438A13Rik logFC” value (A24logFC) was 0.2879 and the “2810428115Rik logFC” value (A24logFC) was −0.2631. The “Abcb11 logFC” value (A24logFC) was −0.2618, the “Abcc2 logFC” value (A24logFC) was 0.2897 and the “Abce1 logFC” value (A24logFC) was 0.28. The “Abcf1 logFC” value (A24logFC) was 0.3032, the “Abcg2 logFC” value (A24logFC) was −0.2809 and the “Acaa1a logFC” value (A24logFC) was −0.3018. For the same compound, the “Acat3 logFC” value (A24logFC) was −0.3115, the “Acot13 logFC” value (A24logFC) was −0.2886 and the “Acsm5 logFC” value (A24logFC) was −0.2614. For the same compound, the “Actr3 logFC” value (A24logFC) was 0.276, the “Aes logFC” value (A24logFC) was −0.2642 and the “Anxa5 logFC” value (A24logFC) was 0.3654. For the same compound, the “Apof logFC” value (A24logFC) was −0.2522, the “Arhgdia logFC” value (A24logFC) was 0.2563 and the “Ash11 logFC” value (A24logFC) was 0.2657. For the same compound, the “Atf4 logFC” value (A24logFC) was 0.3411, the “Bc1af1 logFC” value (A24logFC) was 0.2685 and the “Bdhl logFC” value (A24logFC) was −0.2936. For the same compound, the “C6 logFC” value (A24logFC) was −0.267, the “C1d logFC” value (A24logFC) was −0.2553 and the “Cap1 logFC” value (A24logFC) was 0.3251. For the same compound, the “Ccdc50 logFC” value (A24logFC) was 0.2858, the “Ccnl1 logFC” value (A24logFC) was 0.2566 and the “Cdh1 logFC” value (A24logFC) was 0.2697. For the same compound, the “Cep85 logFC” value (A24logFC) was 0.2839, the “Chmp4b logFC” value (A24logFC) was 0.3002 and the “Chuk logFC” value (A24logFC) was 0.3724. For the same compound, the “Clic4 logFC” value (A24logFC) was 0.2998, the “Coasy logFC” value (A24logFC) was −0.2534 and the “Commd3 logFC” value (A24logFC) was −0.2656. The “Csrp3 logFC” value (A24logFC) was −0.294, the “Ctnnd1 logFC” value (A24logFC) was 0.2518 and the “Ctsc logFC” value (A24logFC) was 0.361. For the same compound, the “Cu11 logFC” value (A24logFC) was 0.2592, the “Cu13 logFC” value (A24logFC) was 0.2788 and the “Cybb logFC” value (A24logFC) was 0.3778. The “Dcaf11 logFC” value (A24logFC) was −0.2817, the “Ddost logFC” value (A24logFC) was 0.2504 and the “Ddx3y logFC” value (A24logFC) was 0.3395. The “Deb1 logFC” value (A24logFC) was −0.267, the “Dera logFC” value (A24logFC) was −0.2674 and the “Diap1 logFC” value (A24logFC) was 0.3259. For the same compound, the “Dnaja2 logFC” value (A24logFC) was 0.3723, the “Dnajc5 logFC” value (A24logFC) was 0.3265 and the “Dsp logFC” value (A24logFC) was 0.2655. For the same compound, the “Eea1 logFC” value (A24logFC) was 0.2612, the “Eif4a1 logFC” value (A24logFC) was 0.2519 and the “Eif4ebp1 logFC” value (A24logFC) was 0.2617. For the same compound, the “Eifia logFC” value (A24logFC) was 0.3147, the “Eifib logFC” value (A24logFC) was 0.2503 and the “Eific logFC” value (A24logFC) was 0.302. The “Elovl5 logFC” value (A24logFC) was 0.3352, the “Fam195a logFC” value (A24logFC) was −0.2649 and the “Fasn logFC” value (A24logFC) was 0.2914. For the same compound, the “Fbxo21 logFC” value (A24logFC) was −0.2631, the “Ftsj3 logFC” value (A24logFC) was 0.2552 and the “Gadd45a logFC” value (A24logFC) was 0.2829. The “Gars logFC” value (A24logFC) was 0.2576, the “Gcat logFC” value (A24logFC) was −0.2587 and the “Gcgr logFC” value (A24logFC) was −0.2576. The “Gda logFC” value (A24logFC) was 0.6275, the “Gldc logFC” value (A24logFC) was 0.2802 and the “Glul logFC” value (A24logFC) was 0.3795. For the same compound, the “Gm5424 logFC” value (A24logFC) was 0.2698, the “Gm20594 logFC” value (A24logFC) was −0.36 and the “Gnai2 logFC” value (A24logFC) was 1. The “Gnas logFC” value (A24logFC) was 0.2589, the “Gsr logFC” value (A24logFC) was 0.4128 and the “Gtf2a2 logFC” value (A24logFC) was 0.2792. For the same compound, the “H2-D1 logFC” value (A24logFC) was 0.2865, the “Hectd1 logFC” value (A24logFC) was 0.308 and the “Herc1 logFC” value (A24logFC) was 0.2562. For the same compound, the “Herc4 logFC” value (A24logFC) was 0.2675, the “Hipk1 logFC” value (A24logFC) was 0.2916 and the “Hnrnpu logFC” value (A24logFC) was 0.3394. The “Hpn logFC” value (A24logFC) was −0.2686, the “Hsbp1 logFC” value (A24logFC) was −0.2867 and the “Iah1 logFC” value (A24logFC) was −0.293. The “Impad1 logFC” value (A24logFC) was 0.3227, the “Ivns1abp logFC” value (A24logFC) was 0.3566 and the “Kdm5a logFC” value (A24logFC) was 0.3514. The “Ldlr logFC” value (A24logFC) was 0.282, the “Lipc logFC” value (A24logFC) was −0.2548 and the “Magi3 logFC” value (A24logFC) was 0.27. The “Map3k2 logFC” value (A24logFC) was 0.2518, the “Mapkapk2 logFC” value (A24logFC) was 0.3138 and the “Megf9 logFC” value (A24logFC) was 0.2769. For the same compound, the “Mgea5 logFC” value (A24logFC) was 0.3263, the “Mrpl11 logFC” value (A24logFC) was −0.2685 and the “Mrpl15 logFC” value (A24logFC) was −0.2912. The “Mrpl20 logFC” value (A24logFC) was −0.3093, the “Mrpl28 logFC” value (A24logFC) was −0.2699 and the “Mrpl34 logFC” value (A24logFC) was −0.2838. For the same compound, the “Mrpl41 logFC” value (A24logFC) was −0.2674, the “Mrpl42 logFC” value (A24logFC) was −0.2845 and the “Mrps12 logFC” value (A24logFC) was −0.2504. The “Mvd logFC” value (A24logFC) was −0.2704, the “Myeov2 logFC” value (A24logFC) was −0.3052 and the “Myo1b logFC” value (A24logFC) was 0.2624. For the same compound, the “Naa50 logFC” value (A24logFC) was 0.2657, the “Ndufa5 logFC” value (A24logFC) was −0.252 and the “Nek7 logFC” value (A24logFC) was 0.2911. The “Net1 logFC” value (A24logFC) was 0.3479, the “Nploc4 logFC” value (A24logFC) was 0.2918 and the “Nqo2 logFC” value (A24logFC) was −0.2678. The “Nucks1 logFC” value (A24logFC) was 0.3558, the “Nudt4 logFC” value (A24logFC) was 0.2542 and the “Pa2g4 logFC” value (A24logFC) was 0.2893. The “Papss2 logFC” value (A24logFC) was −0.2545, the “Pcm1 logFC” value (A24logFC) was 0.2654 and the “Pde3b logFC” value (A24logFC) was −0.259. The “Pdzd8 logFC” value (A24logFC) was 0.2863, the “Pet100 logFC” value (A24logFC) was −0.28 and the “Pgls logFC” value (A24logFC) was −0.2747. For the same compound, the “Pi4k2a logFC” value (A24logFC) was 0.3536, the “Pkp4 logFC” value (A24logFC) was 0.323 and the “Plbd2 logFC” value (A24logFC) was 0.2649. The “Plcxd2 logFC” value (A24logFC) was −0.2752, the “Pmpcb logFC” value (A24logFC) was −0.2636 and the “Ppip5k2 logFC” value (A24logFC) was 0.3209. For the same compound, the “Ppm1g logFC” value (A24logFC) was 0.2522, the “Proc logFC” value (A24logFC) was −0.2707 and the “Prpf19 logFC” value (A24logFC) was 0.2588. For the same compound, the “Psap logFC” value (A24logFC) was 0.361, the “Psma1 logFC” value (A24logFC) was −0.2567 and the “Psma6 logFC” value (A24logFC) was −0.3035. The “Ptpmt1 logFC” value (A24logFC) was −0.256, the “Ptpn11 logFC” value (A24logFC) was 0.2778 and the “Pvrl2 logFC” value (A24logFC) was −0.2613. For the same compound, the “Rab6a logFC” value (A24logFC) was 0.3234, the “Rabac1 logFC” value (A24logFC) was −0.266 and the “Rangap1 logFC” value (A24logFC) was 0.2962. The “Rap1b logFC” value (A24logFC) was 0.3408, the “Rassf3 logFC” value (A24logFC) was 0.2912 and the “Rbm39 logFC” value (A24logFC) was 0.2657. The “Riok3 logFC” value (A24logFC) was 0.2916, the “Rmnd5a logFC” value (A24logFC) was 0.3189 and the “Rnf169 logFC” value (A24logFC) was 0.334. For the same compound, the “Rock1 logFC” value (A24logFC) was 0.2608.
